# According to PubChem BioAssay (NCI):
#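 All cell lines were grown in 96-well plates and treated with compound for 48 hours. Definition used: TGI = concentration required for complete inhibition of growth.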 Where a SMILES comes first, the peptide text is derived from it. Bridges are numbered along the chain shown (N, C = ends). The star is where a group is joined. Cbz = O=C(OCc1ccccc1)*
# Assays:
# Experiment in all cases: growth of human tumour cells (NCI), 48 h
# [1] = test system: CCRF-CEM leukemia
# [2] = test system: SF-539 CNS
# [3] = test system: MALME-3M melanoma
# [4] = test system: HOP-62 NSCLC
# [5] = test system: NCI-H522 lung
# [6] = test system: LOX IMVI melanoma
# [7] = test system: A498 renal
# [8] = test system: HCT-15 colon
# [9] = test system: K-562 leukemia
# [10] = test system: MCF7 breast
# [11] = test system: TK-10 renal
# [12] = test system: M14 melanoma
# [13] = test system: DU-145 prostate
# [14] = test system: EKVX NSCLC
# [15] = test system: PC-3 prostate
# [16] = test system: NCI-H23 lung
# [17] = test system: HCC-2998 colon
Structure (SMILES),TGI [1] [µM],TGI [2] [µM],TGI [3] [µM],TGI [4] [µM],TGI [5] [µM],TGI [6] [µM],TGI [7] [µM],TGI [8] [µM],TGI [9] [µM],TGI [10] [µM],TGI [11] [µM],TGI [12] [µM],TGI [13] [µM],TGI [14] [µM],TGI [15] [µM],TGI [16] [µM],TGI [17] [µM]
NC(N)=N/N=C/c1c(-c2ccccc2[N+](=O)[O-])nc2sccn12,55,37.6,32.3,69.5,39.8,44.4,37.7,> 100,33.8,38.1,57,31.2,> 100,> 100,71.1,86.5,–
CC(C)(C)N(Cc1ccccc1)C(=O)/C=C\S(=O)c1ccccc1 (stereo unspecified),> 44.9,9.67,12.2,21.2,2.7,5.7,26.5,18,> 100,16.4,18.5,8.91,13.6,24.1,13.2,7.74,15.5
Clc1ccc(/C=C/c2nc(-c3ccccc3)cn3c2nc2ccccc23)cc1Cl,48,> 100,–,> 100,–,> 100,> 100,> 100,> 100,> 100,> 100,> 100,> 100,> 100,> 100,> 100,> 100
N=c1sc2ccccc2n1CCS (tested in a mixture with another compound),> 100,19.3,37.6,39.8,45.4,30.5,33.2,34.6,44.7,25.6,48.6,30.6,46,62.3,> 100,32.3,30.8
COCCN(C(=O)c1ccccc1)C1CCC2(SCCS2)c2[nH]c3ccccc3c21 (stereo unspecified),> 100,> 100,> 100,> 100,98.8,> 100,> 100,> 100,> 100,> 100,> 100,–,> 100,> 100,59.3,> 100,> 100
C=C1CC[C@](C)(O)[C@@]2(C)CC[C@H]3C(=C(C)C)C(=O)C[C@]3(C)C[C@H]12,30.9,> 50,–,> 50,> 50,28.4,> 50,46.2,16.8,> 50,> 50,> 50,> 50,> 50,> 50,> 50,> 50
COc1cc2nc(-c3cccs3)nc(Nc3cccc([N+](=O)[O-])c3)c2cc1OC,> 100,34,35.2,36.1,38.1,45.7,> 100,31.8,> 100,59.1,37,33.5,30,33.1,37.8,28.9,–
COc1ccc(/C=C/C(=O)c2cc(OC)cc(OC)c2)cc1,10.1,7.93,27.8,14.6,6.29,15.4,11.7,7.9,> 100,0.952,23.9,6.83,10.8,20,20.7,8.53,16.3
CN(C)c1cccc(-c2cc(=S)c3cc4c(cc3[nH]2)OCO4)c1,> 100,> 100,> 100,> 100,67.7,> 100,> 100,> 100,> 100,> 100,> 100,> 100,> 100,> 100,> 100,> 100,> 77.7
Cc1ccc2c(c1C)C(=O)C1(C2)Cc2ccc3c(c2C1=O)CCC3 (stereo unspecified),> 100,> 100,> 100,–,> 100,–,> 100,> 100,> 100,> 100,> 100,> 100,> 100,> 100,> 100,> 100,> 100
C=C1c2nc3ccccc3n2C=C(c2ccc(OC)cc2)N1c1ccc(OCCN2CCCCC2)cc1,10.1,81.2,> 100,> 100,> 100,> 44,> 84.5,> 100,> 100,> 100,41.8,> 100,> 100,> 100,> 51.3,> 61.4,33.6
COc1ccc2c(c1)/C(=C/c1c(O)[nH]c(=S)[nH]c1=O)C=N2,> 100,> 100,> 100,> 100,> 100,> 100,> 100,> 100,> 100,> 100,> 100,> 100,> 100,> 100,> 100,> 100,> 100
COc1cc2nc3n(c2cc1OC)C(O)c1c(Cl)nc(SC)nc1S3 (stereo unspecified),3.91,5.22,8.8,26.1,4.36,5.07,34.9,12.3,> 100,15,> 74,21.8,24.1,40.6,> 49.8,18.3,20.2
C=CCN1C(=O)CC2[C@@H]3CCc4cc(O)ccc4C3CC[C@]2(C)C1=O (stereo partly specified),> 10,> 10,> 10,> 10,–,> 10,> 10,> 10,> 10,> 10,> 10,> 10,> 10,> 10,> 10,> 10,> 10
OCC(O)COCn1cc(Cn2ncc3c(SCc4ccccc4)ncnc32)nn1 (stereo unspecified),> 100,> 100,–,> 100,73,> 100,> 100,> 100,> 100,> 100,> 100,> 100,> 100,> 100,> 100,> 100,> 100
C/C=C1/CC(C(=O)OC)N(C(=O)OCc2ccccc2)C1=S (stereo unspecified),–,–,> 100,> 100,> 100,–,> 100,> 100,> 100,> 100,> 100,> 100,> 100,> 100,> 100,> 100,> 100
COC(=O)c1c(O)c(C#N)c2[nH]c3ccccc3n2c1=O,> 100,> 100,> 100,> 100,> 100,–,> 100,> 100,> 100,> 100,> 100,> 100,> 100,> 100,> 100,> 100,> 100
C#CCN(Cc1ccc2nc(-c3ccccc3)c(Cl)nc2c1)c1ccc(F)cc1,> 100,> 100,> 100,> 100,> 100,> 100,> 100,> 100,–,> 100,> 100,> 100,> 100,> 100,> 100,> 100,> 100
CCOC(=O)c1nc2ccccc2nc1Oc1cc(OC)cc(OC)c1,> 100,> 100,> 100,> 100,> 100,> 100,> 100,> 100,> 100,> 100,> 100,> 100,> 100,> 100,> 100,–,–
Cc1nc2ccc(F)cc2c2c1CCS2,> 100,> 100,> 100,> 100,> 100,> 100,> 100,> 100,94.5,> 100,> 100,–,> 100,> 100,> 100,> 100,> 100
COc1ccc2c(-c3csc(-c4c[nH]c5ccc(Br)cc45)n3)c[nH]c2c1,> 100,–,43.9,> 100,92.6,> 100,> 100,> 100,> 100,> 100,> 100,> 100,> 100,> 100,79.3,> 100,–
COC(=NC(C)C)NC(C)C,> 100,> 100,–,> 100,–,> 100,> 100,> 100,> 100,> 100,> 100,> 100,> 100,> 100,> 100,> 100,> 100
CNC(=O)C1CCCCNC(=O)CCC(NC(=O)OCc2ccccc2)C(=O)N1 (stereo not drawn) (Cbz-Glu-Lys-NHMe; lactam 1-2; configuration not given here),> 100,> 100,> 100,> 100,> 100,> 100,> 100,> 100,> 100,> 100,> 100,> 100,> 100,> 100,> 100,> 100,–
O=C(O)c1ccccc1CN1CCCC(C(=O)O)C1 (stereo unspecified),–,> 100,> 100,> 100,> 100,> 100,> 100,> 100,> 100,> 100,> 100,> 100,> 100,> 100,> 100,> 100,–
C=CCOC(=O)Cn1cnc2c(N)ncnc21,> 100,> 100,> 100,> 100,–,> 100,> 100,> 100,> 100,> 100,> 100,> 100,> 100,> 100,> 100,> 100,> 100
O=C1C=CC2(C=C1)O[C@H](COCc1ccccc1)[C@@H](COCc1ccccc1)O2,–,3.62,6.48,5.12,–,3.51,34.1,2.99,> 100,2.3,4.17,3.88,12.5,3.66,4.74,4.29,–
CN(Cc1cnc2nc(N)nc(N)c2n1)c1ccc(C(=O)NCCCS(=O)(=O)O)cc1,–,> 100,> 100,> 100,> 100,> 100,> 100,> 100,> 100,> 100,> 100,> 100,> 100,> 100,> 100,> 100,> 100
C[N+]1(C)C2CC(OC(=O)C(CO)c3ccccc3)CC1C1OC12 (stereo unspecified),> 100,> 100,> 100,> 100,> 100,> 100,> 100,> 100,> 100,> 100,> 100,> 100,> 100,> 100,> 100,> 100,–
Cc1ccc(S(=O)(=O)NNC(=O)Nc2cccc(C(F)(F)F)c2)cc1,> 100,> 100,> 100,> 100,> 100,–,> 100,> 100,> 100,> 100,> 100,> 100,> 100,> 100,> 100,> 100,> 100
